These results are taken from the NIST ThermoML archive (doi:10.1016/j.fluid.2018.07.028).

A short description of this data set: activity coefficient (dimensionless); of the first substance listed, at infinite dilution; xn = mol fraction of the nth substance listed. The settings on record: 101.33 kPa, Liquid, Chromatography, x1 = 0.

± gives the expanded uncertainty stated by the source.

For `CCCc1ccccc1` [propylbenzene] + CCCC[P+](CCCC)(CCCC)CCCC.O=S(=O)([N-]S(=O)(=O)C(F)(F)F)C(F)(F)F, the activity coefficient was found to be 1.88 ± 0.13 (358.15 K); 1.93 ± 0.13 (368.15 K); 1.98 ± 0.13 (378.15 K); 2.03 ± 0.14 (388.15 K); 2.07 ± 0.14 (398.15 K); 2.12 ± 0.14 (408.15 K).

For the compound `CCCCCO` [pentan-1-ol] + CCCC[P+](CCCC)(CCCC)CCCC.O=S(=O)([N-]S(=O)(=O)C(F)(F)F)C(F)(F)F, the activity coefficient came out at 1.81 ± 0.12 (358.15 K); 1.76 ± 0.12 (368.15 K); 1.71 ± 0.11 (378.15 K); 1.67 ± 0.11 (388.15 K); 1.63 ± 0.11 (398.15 K); 1.59 ± 0.11 (408.15 K).

For the compound `C1CCCCC1` [cyclohexane] + CCCC[P+](CCCC)(CCCC)CCCC.O=S(=O)([N-]S(=O)(=O)C(F)(F)F)C(F)(F)F, the activity coefficient by setting is: (358.15 K) 2.85 ± 0.19; (368.15 K) 2.85 ± 0.19; (378.15 K) 2.85 ± 0.19; (388.15 K) 2.86 ± 0.19; (398.15 K) 2.86 ± 0.19; (408.15 K) 2.86 ± 0.19.

`CCOC(C)(C)C` [2-ethoxy-2-methylpropane] + CCCC[P+](CCCC)(CCCC)CCCC.O=S(=O)([N-]S(=O)(=O)C(F)(F)F)C(F)(F)F: the activity coefficient (358.15 K) stood at 2.72 ± 0.19; the activity coefficient (368.15 K) turned out to be 2.78 ± 0.19; the activity coefficient (378.15 K) came to 2.84 ± 0.19; the activity coefficient (388.15 K) turned out to be 2.91 ± 0.2; the activity coefficient (398.15 K) is 2.96 ± 0.2; the activity coefficient (408.15 K) was determined as 3.02 ± 0.21.

On to `CCCC(C)=O` [pentan-2-one] + CCCC[P+](CCCC)(CCCC)CCCC.O=S(=O)([N-]S(=O)(=O)C(F)(F)F)C(F)(F)F, for which the activity coefficient reads like this: (358.15 K) 0.62 ± 0.043; (368.15 K) 0.651 ± 0.045; (378.15 K) 0.682 ± 0.046; (388.15 K) 0.714 ± 0.048; (398.15 K) 0.744 ± 0.049; (408.15 K) 0.774 ± 0.051.

`CCCC=O` [butanal] + CCCC[P+](CCCC)(CCCC)CCCC.O=S(=O)([N-]S(=O)(=O)C(F)(F)F)C(F)(F)F: the activity coefficient reads like this: (358.15 K) 0.669 ± 0.045; (368.15 K) 0.699 ± 0.047; (378.15 K) 0.729 ± 0.048; (388.15 K) 0.758 ± 0.05; (398.15 K) 0.787 ± 0.051; (408.15 K) 0.817 ± 0.053.

With `CCCCCCCCCC` [decane] + CCCC[P+](CCCC)(CCCC)CCCC.O=S(=O)([N-]S(=O)(=O)C(F)(F)F)C(F)(F)F, the activity coefficient runs as follows: (358.15 K) 10.4 ± 0.7; (368.15 K) 10.1 ± 0.7; (378.15 K) 9.88 ± 0.67; (388.15 K) 9.67 ± 0.66; (398.15 K) 9.47 ± 0.65; (408.15 K) 9.29 ± 0.63.

Consider `CCc1ccccc1` [ethylbenzene] + CCCC[P+](CCCC)(CCCC)CCCC.O=S(=O)([N-]S(=O)(=O)C(F)(F)F)C(F)(F)F, for which the activity coefficient by setting is: (358.15 K) 1.49 ± 0.1; (368.15 K) 1.54 ± 0.1; (378.15 K) 1.58 ± 0.1; (388.15 K) 1.63 ± 0.11; (398.15 K) 1.67 ± 0.11; (408.15 K) 1.71 ± 0.11.

For the compound `CCC(=O)OC` [methyl propanoate] + CCCC[P+](CCCC)(CCCC)CCCC.O=S(=O)([N-]S(=O)(=O)C(F)(F)F)C(F)(F)F, the activity coefficient worked out at 0.82 ± 0.053 (358.15 K); 0.857 ± 0.055 (368.15 K); 0.894 ± 0.057 (378.15 K); 0.931 ± 0.059 (388.15 K); 0.967 ± 0.061 (398.15 K); 1 ± 0.06 (408.15 K).

Regarding `Cc1ccccc1` [toluene] + CCCC[P+](CCCC)(CCCC)CCCC.O=S(=O)([N-]S(=O)(=O)C(F)(F)F)C(F)(F)F, the activity coefficient by setting is: (358.15 K) 1.11 ± 0.07; (368.15 K) 1.16 ± 0.07; (378.15 K) 1.2 ± 0.08; (388.15 K) 1.24 ± 0.08; (398.15 K) 1.28 ± 0.08; (408.15 K) 1.32 ± 0.09.

As for `CCCO` [propan-1-ol] + CCCC[P+](CCCC)(CCCC)CCCC.O=S(=O)([N-]S(=O)(=O)C(F)(F)F)C(F)(F)F, the activity coefficient was 1.53 ± 0.1 (358.15 K); 1.47 ± 0.1 (368.15 K); 1.42 ± 0.09 (378.15 K); 1.37 ± 0.09 (388.15 K); 1.32 ± 0.09 (398.15 K); 1.28 ± 0.08 (408.15 K).

With `Cc1ccc(C)cc1` [1,4-dimethylbenzene] + CCCC[P+](CCCC)(CCCC)CCCC.O=S(=O)([N-]S(=O)(=O)C(F)(F)F)C(F)(F)F, the activity coefficient runs as follows: (358.15 K) 1.55 ± 0.1; (368.15 K) 1.6 ± 0.11; (378.15 K) 1.64 ± 0.11; (388.15 K) 1.69 ± 0.11; (398.15 K) 1.74 ± 0.12; (408.15 K) 1.79 ± 0.12.

Consider `C#CCCC` [1-pentyne] + CCCC[P+](CCCC)(CCCC)CCCC.O=S(=O)([N-]S(=O)(=O)C(F)(F)F)C(F)(F)F, for which the activity coefficient amounted to 1.52 ± 0.1 (358.15 K); 1.58 ± 0.1 (368.15 K); 1.64 ± 0.11 (378.15 K); 1.7 ± 0.11 (388.15 K); 1.76 ± 0.12 (398.15 K); 1.82 ± 0.12 (408.15 K).

As to `C1CCCCCC1` [cycloheptane] + CCCC[P+](CCCC)(CCCC)CCCC.O=S(=O)([N-]S(=O)(=O)C(F)(F)F)C(F)(F)F, the activity coefficient by setting is: (358.15 K) 3.42 ± 0.23; (368.15 K) 3.41 ± 0.23; (378.15 K) 3.4 ± 0.23; (388.15 K) 3.39 ± 0.23; (398.15 K) 3.38 ± 0.23; (408.15 K) 3.37 ± 0.23.

As to `CC(C)c1ccccc1` [isopropylbenzene] + CCCC[P+](CCCC)(CCCC)CCCC.O=S(=O)([N-]S(=O)(=O)C(F)(F)F)C(F)(F)F, the activity coefficient (358.15 K) turned out to be 1.92 ± 0.13; the activity coefficient (368.15 K) is 1.97 ± 0.13; the activity coefficient (378.15 K) came to 2.02 ± 0.14; the activity coefficient (388.15 K) was 2.07 ± 0.14; the activity coefficient (398.15 K) came out at 2.12 ± 0.14; the activity coefficient (408.15 K) was 2.17 ± 0.15.

As for `CCO` [ethanol] + CCCC[P+](CCCC)(CCCC)CCCC.O=S(=O)([N-]S(=O)(=O)C(F)(F)F)C(F)(F)F, the activity coefficient was found to be 1.42 ± 0.09 (358.15 K); 1.36 ± 0.09 (368.15 K); 1.31 ± 0.09 (378.15 K); 1.26 ± 0.08 (388.15 K); 1.22 ± 0.08 (398.15 K); 1.18 ± 0.08 (408.15 K).
